Assay results taken from patent US9670221B2, “Furopyridines as bromodomain inhibitors” (GlaxoSmithKline Intellectual Property (No.2) Limited, priority 2013, dated 2017).
Where a name gives a salt, the structure may show the parent alone.

molecular target: T1, BRD4 BD1 (Homo sapiens, UniProt O60885, Y390A); test: TR-FRET binding assay, BRD4 BD1 (mutant protein); settings: BRD4 (1-477) mutant, 10 nM protein, read-out: pIC50 in the BRD4 BD1 assay (converted)
T1 construct: BRD4 (1-477) (Y97A) and (Y390A); made in house; host or cells: E. coli (pET15b vector)
Description: Time Resolved Fluorescence Resonance Energy Transfer (TR-FRET) Assay
Binding was assessed using a time resolved fluorescent resonance energy transfer binding assay. This utilises a 6 His purification tag at the N-terminal of the proteins as an epitope for an anti-6 His antibody labeled with Europium chelate (PerkinElmer AD0111) allowing binding of the Europium to the proteins which acts as the donor fluorophore. A small molecule, high affinity binder of the bromodomains BRD2, BRD3, BRD4 and BRDT has been labeled with Alexa Fluor647 (Reference Compound X) and this acts as the acceptor in the FRET pair.
Assay Principle: In the absence of a competing compound, excitation of the Europium causes the donor to emit at λ618 nm which excites the Alexa labelled bromodomain binding compound leading to an increased energy transfer that is measurable at λ647 […]. In the presence of a sufficient concentration of a compound that can bind these proteins, the interaction is disrupted leading to a quantifiable drop in fluorescent resonance energy transfer.
The binding of the compounds of formula (I) to Bromodomains BRD2, BRD3, BRD4 and BRDT was assessed using mutated proteins to detect differential binding to either Binding Domain 1 (BD1) or Binding Domain 2 (BD2) on the bromodomain. These single residue mutations in the acetyl lysine binding pocket greatly lower the affinity of the fluoroligand (Reference Compound X) for the mutated domain (>1000 fold selective for the non-mutated domain). Therefore in the final assay conditions, binding of the fluoroligand to the mutated domain cannot be detected and subsequently the assay is suitable to determine the binding of compounds to the single non-mutated bromodomain.
Protein production: Recombinant Human Bromodomains [(BRD2 (1-473) (Y113A) and (Y386A), BRD3 (1-435) (Y73A) and (Y348A) BRD4 (1-477) (Y97A) and (Y390A) and BRDT (1-397) (Y66A) and (Y309A)] were expressed in E. coli cells (in pET15b vector for BRD2/3/4 and in pET28a vector for BRDT) with a 6-His tag at the N-terminal. The His-tagged Bromodomain pellet was resuspended in 50 mM HEPES (pH7.5), 300 mM NaCl, 10 mM imidazole & 1 μl/mL protease inhibitor cocktail and extracted from the E. coli cells using sonication and purified using a nickel sepharose high performance column, the proteins were washed and then eluted with a linear gradient of 0-500 mM imidazole with buffer 50 mM HEPES (pH7.5), 150 mM NaCl, 500 mM imidazole, over 20 column volumes. Final purification was completed by Superdex 200 prep grade size exclusion column. Purified protein was stored at −80° C. in 20 mM HEPES pH 7.5 and 100 mM NaCl. Protein identity was confirmed by peptide mass fingerprinting and predicted molecular weight confirmed by mass spectrometry.
Protocol for Bromodomain BRD2, 3, 4 and T, BD1^+BD2 mutant assays: All assay components were dissolved in buffer composition of 50 mM HEPES pH7.4, 50 mM NaCl, 5% Glycerol, 1 mM DTT and 1 mM CHAPS. The final concentration of bromodomain proteins were 10 nM and the Alexa Fluor647 ligand was at Kd. These components were premixed and 5 μl of this reaction mixture was added to all wells containing 50 nl of various concentrations of test compound or DMSO vehicle (0.5% DMSO final) in Greiner 384 well black low volume microtitre plates and incubated in dark for 30 minutes at room temperature. 5 μl of detection mixture containing 1.5 nM final concentration anti-6His Europium chelate was added to all wells and a further dark incubation of at least 30 minutes was performed. Plates were then read on the Envision platereader, (λex=317 nm, donor λem=615 nm; acceptor λem=665 nm; Dichroic LANCE dual). Time resolved fluorescent intensity measurements were made at both emission wavelengths and the ratio of acceptor/donor was calculated and used for data analysis. All data was normalized to the mean of 16 high (inhibitor control—Example 11 of WO 2011/054846A1) and 16 low (DMSO) control wells on each plate. […]

`COC(C)COc1cnccc1-c1cn(C)c(=O)c2cc(CN3CCN(S(C)(=O)=O)C[C@H]3C)oc12` (stereo partly drawn) [Example 78, 7-(3-(2-methoxypropoxy)pyridin-4-yl)-5-methyl-2-(((R)-2-methyl-4-(methylsulfonyl)piperazin-1-yl)methyl)furo[3,2-c]pyridin-4(5H)-one] and `CCOc1cnccc1-c1cn(C)c(=O)c2cc(CN3CCN(S(C)(=O)=O)C[C@H]3C)oc12` [Example 52, (R)-7-(3-ethoxypyridin-4-yl)-5-methyl-2-((2-methyl-4-(methylsulfonyl)piperazin-1-yl)methyl)furo[3,2-c]pyridin-4(5H)-one] cannot be ordered by IC50: no more than 100 nM for the first, no more than 100 nM for the second.

`C[C@@H]1CN(S(C)(=O)=O)CCN1Cc1cc2c(=O)n(C)cc(-c3cccc(N)c3)c2o1` [Example 50, (R)-7-(3-aminophenyl)-5-methyl-2-((2-methyl-4-(methylsulfonyl)piperazin-1-yl)methyl)furo[3,2-c]pyridin-4(5H)-one] and `C[C@@H]1CN(S(C)(=O)=O)CCN1Cc1cc2c(=O)n(C)cc(-c3cccc(NC(=O)CCCCN)c3)c2o1` [Example 64, (R)-5-amino-N-(3-(5-methyl-2-((2-methyl-4-(methylsulfonyl)piperazin-1-yl)methyl)-4-oxo-4,5-dihydrofuro[3,2-c]pyridin-7-yl)phenyl)pentanamide hydrochloride] cannot be ordered by IC50: no more than 100 nM for the first, no more than 100 nM for the second.

`CC(=O)Nc1cc(-c2cn(C)c(=O)c3cc(CN4CCS(=O)(=O)CC4)oc23)ccn1` [Example 87, N-(4-(2-((1,1-dioxidothiomorpholino)methyl)-5-methyl-4-oxo-4,5-dihydrofuro[3,2-c]pyridin-7-yl)pyridin-2-yl)acetamide] and `CC(=O)Nc1cc(-c2cn(C)c(=O)c3cc(CN4CCN(S(C)(=O)=O)CC4)oc23)ccn1` [Example 37, N-(4-(5-methyl-2-((4-(methylsulfonyl)piperazin-1-yl)methyl)-4-oxo-4,5-dihydrofuro[3,2-c]pyridin-7-yl)pyridin-2-yl)acetamide] cannot be ordered by IC50: no more than 100 nM for the first, no more than 100 nM for the second.

`C[C@@H]1CN(S(C)(=O)=O)CCN1Cc1cc2c(=O)n(C)cc(-c3ccncc3OCC3CC3)c2o1` [Example 32, (R)-7-(3-(cyclopropylmethoxy)pyridin-4-yl)-5-methyl-2-((2-methyl-4-(methylsulfonyl)piperazin-1-yl)methyl)furo[3,2-c]pyridin-4(5H)-one] and `C[C@@H]1CN(S(C)(=O)=O)CCN1Cc1cc2c(=O)n(C)cc(-c3ccncc3OCC3CCOC3)c2o1` (stereo partly drawn) [Example 69, 5-methyl-2-(((R)-2-methyl-4-(methylsulfonyl)piperazin-1-yl)methyl)-7-(3-((tetrahydrofuran-3-yl)methoxy)pyridin-4-yl)furo[3,2-c]pyridin-4(5H)-one] cannot be ordered by IC50: no more than 10 nM for the first, no more than 100 nM for the second.

`C[C@@H]1CN(S(C)(=O)=O)CCN1Cc1cc2c(=O)n(C)cc(-c3ccnc(NC(=O)C4CC4)c3)c2o1` [Example 24, (R)—N-(4-(5-methyl-2-((2-methyl-4-(methylsulfonyl)piperazin-1-yl)methyl)-4-oxo-4,5-dihydrofuro[3,2-c]pyridin-7-yl)pyridin-2-yl)cyclopropanecarboxamide] and `CC(=O)Nc1cccc(-c2cn(C)c(=O)c3cc(CN4CCN(S(C)(=O)=O)C[C@H]4C)oc23)n1` [Example 54, (R)-N-(6-(5-methyl-2-((2-methyl-4-(methylsulfonyl)piperazin-1-yl)methyl)-4-oxo-4,5-dihydrofuro[3,2-c]pyridin-7-yl)pyridin-2-yl)acetamide] cannot be ordered by IC50: no more than 100 nM for the first, no more than 100 nM for the second.

`CC(Nc1cc(-c2cn(C)c(=O)c3cc(CN4CCN(S(C)(=O)=O)CC4)oc23)ccn1)c1ccccc1` (stereo not shown) [Example 14, 5-methyl-2-((4-(methylsulfonyl)piperazin-1-yl)methyl)-7-(2-((1-phenylethyl)amino)pyridin-4-yl)furo[3,2-c]pyridin-4(5H)-one] and `CC(=O)Nc1cccc(-c2cn(C)c(=O)c3cc(CN4CCN(S(C)(=O)=O)CC4)oc23)c1` [Example 48, N-(3-(5-methyl-2-((4-(methylsulfonyl)piperazin-1-yl)methyl)-4-oxo-4,5-dihydrofuro[3,2-c]pyridin-7-yl)phenyl)acetamide] cannot be ordered by IC50: no more than 100 nM for the first, no more than 100 nM for the second.

`Cn1cc(-c2ccncc2OCC2CC2)c2oc(CN3CCCNCC3)cc2c1=O` [Example 55, 2-((1,4-diazepan-1-yl)methyl)-7-(3-(cyclopropylmethoxy)pyridin-4-yl)-5-methylfuro[3,2-c]pyridin-4(5H)-one hydrochloride] and `CN1CCN(Cc2cc3c(=O)n(C)cc(-c4ccncc4OCC4CC4)c3o2)CC1=O` [Example 76, 7-(3-(cyclopropylmethoxy)pyridin-4-yl)-5-methyl-2-((4-methyl-3-oxopiperazin-1-yl)methyl)furo[3,2-c]pyridin-4(5H)-one hydrochloride] cannot be ordered by IC50: no more than 100 nM for the first, no more than 100 nM for the second.

`C[C@@H]1CN(S(C)(=O)=O)CCN1Cc1cc2c(=O)n(C)cc(-c3ccncc3OCC3CC3(F)F)c2o1` (stereo partly drawn) [Example 61, 7-(3-((2,2-difluorocyclopropyl)methoxy)pyridin-4-yl)-5-methyl-2-(((R)-2-methyl-4-(methylsulfonyl)piperazin-1-yl)methyl)furo[3,2-c]pyridin-4(5H)-one] and `C[C@@H]1CN(S(C)(=O)=O)CCN1Cc1cc2c(=O)n(C)cc(-c3ccncc3OC[C@H]3CCO3)c2o1` [Example 42, 5-methyl-2-(((R)-2-methyl-4-(methylsulfonyl)piperazin-1-yl)methyl)-7-(3-((R)-oxetan-2-ylmethoxy)pyridin-4-yl)furo[3,2-c]pyridin-4(5H)-one] cannot be ordered by IC50: no more than 10 nM for the first, no more than 100 nM for the second.

`C[C@@H]1CN(S(C)(=O)=O)CCN1Cc1cc2c(=O)n(C)cc(-c3ccncc3NCC3CC3)c2o1` [Example 40, (R)-7-(3-((cyclopropylmethyl)amino)pyridin-4-yl)-5-methyl-2-((2-methyl-4-(methylsulfonyl)piperazin-1-yl)methyl)furo[3,2-c]pyridin-4(5H)-one] and `C[C@@H]1CN(S(C)(=O)=O)CCN1Cc1cc2c(=O)n(C)cc(-c3ccncc3OCC3CCCO3)c2o1` (stereo partly drawn) [Example 70, 5-methyl-2-(((R)-2-methyl-4-(methylsulfonyl)piperazin-1-yl)methyl)-7-(3-((tetrahydrofuran-2-yl)methoxy)pyridin-4-yl)furo[3,2-c]pyridin-4(5H)-one] cannot be ordered by IC50: no more than 100 nM for the first, no more than 100 nM for the second.

`CN1CCCN(Cc2cc3c(=O)n(C)cc(-c4cccc(NCc5ccccn5)c4)c3o2)CC1` [Example 57, 5-methyl-2-((4-methyl-1,4-diazepan-1-yl)methyl)-7-(3-((pyridin-2-ylmethyl)amino)phenyl)furo[3,2-c]pyridin-4(5H)-one hydrochloride] and `Cn1cc(-c2ccnc(NCc3ccccn3)c2)c2oc(CN3CCCNCC3)cc2c1=O` [Example 34, 2-((1,4-diazepan-1-yl)methyl)-5-methyl-7-(2-((pyridin-2-ylmethyl)amino)pyridine-4-yl)furo[3,2-c]pyridin-4(5H)-one hydrochloride] cannot be ordered by IC50: no more than 100 nM for the first, no more than 100 nM for the second.

`CC(=O)Nc1cc(-c2cn(C)c(=O)c3cc(C(C)N4CCN(S(C)(=O)=O)CC4)oc23)ccn1` (stereo not shown) [Example 36, N-(4-(5-methyl-2-(1-(4-(methylsulfonyl)piperazin-1-yl)ethyl)-4-oxo-4,5-dihydrofuro[3,2-c]pyridin-7-yl)pyridin-2-yl)acetamide, formic acid salt] and `COc1ccc(-c2cn(C)c(=O)c3cc(CN4CCN(S(C)(=O)=O)CC4)oc23)cc1OC` [Example 1, 7-[3,4-bis(methyloxy)phenyl]-5-methyl-2-{[4-(methylsulfonyl)-1-piperazinyl]methyl}furo[3,2-c]pyridin-4(5H)-one] cannot be ordered by IC50: no more than 100 nM for the first, no more than 100 nM for the second.
